In patent US9394284B2, “Compounds act at multiple prostaglandin receptors giving a general anti-inflammatory response” (Allergan, Inc., priority 2010, dated 2016):

How the values were obtained:
Assay type in all cases: cell-based
[1] = target: T1, human prostanoid FP receptor (Homo sapiens, UniProt P43088); test: FLIPR Ca2+ signaling antagonist assay, FP receptor stable cell line; conditions: HEK-293 EBNA stable cell line; standard agonist 17-phenyl-PGF2α; NA = inactive (no antagonism or Kb 10,000 nM); PAg, Ag not defined
T1 construct: expressed in transfected cells
T1 sequence (P43088 whole entry): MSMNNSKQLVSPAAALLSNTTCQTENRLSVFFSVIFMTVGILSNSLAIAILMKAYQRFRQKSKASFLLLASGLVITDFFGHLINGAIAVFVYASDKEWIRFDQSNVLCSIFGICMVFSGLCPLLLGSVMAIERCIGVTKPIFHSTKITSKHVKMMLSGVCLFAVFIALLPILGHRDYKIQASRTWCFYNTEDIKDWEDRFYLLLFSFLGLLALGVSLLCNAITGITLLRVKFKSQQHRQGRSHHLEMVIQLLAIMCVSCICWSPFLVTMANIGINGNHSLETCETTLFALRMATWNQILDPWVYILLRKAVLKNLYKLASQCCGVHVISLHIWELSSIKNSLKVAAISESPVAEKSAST
Description: (§1) The above compounds were tested for PG antagonist activity as follows using human recombinant prostanoid receptor (DP1, EP1-4, FP, IP and TP) stable cell lines:
(§2) In order to measure the response of Gs and Gi coupled prostanoid receptors as a Ca^2+ signal, chimeric G protein cDNAs were used. Stable cell lines over-expressing human prostanoid DP1, EP1-4, FP, IP, and TP receptors were established as follows:
(§3) Briefly, human prostanoid DP1, EP2, and EP4 receptor cDNAs were co-transfected with chimeric Gqs cDNA containing a haemagglutanin (HA) epitope; human prostanoid EP3 receptors were co-transfected with chimeric Gqi-HA; human EP1, FP, IP, and TP receptor cDNAs were expressed with no exogenous G-proteins. Gqs and Gqi chimeric cDNAs (Molecular Devices, Sunnyvale, Calif., U.S.A.), as well as cDNAs of prostanoid receptors, were cloned into a pCEP4 vector with a hygromycin B selection marker. Transfection into HEK-293 EBNA (Epstein-Barr virus nuclear antigen) cells was achieved by the FuGENE 6 transfection Reagent (Roche Applied Science, Indianapolis, Ind., USA). Stable transfectants were selected according to hygromycin resistance. Because Gqs and Gqi contained an HA epitope, G-protein expression was detected by Western blotting analysis using anti-mouse HA monoclonal antibody and horseradish peroxidase (HRP)-conjugated secondary antibody, while functional expression of prostanoid receptors was detected by FLIPR screening (Matias et al., 2004). These stable cell lines were validated using previously published antagonists at 10 μM against serial dilutions of standard agonists by FLIPR functional assays for Ca^2+ Signaling (as described below).
(§4) Ca^2+ signaling studies were performed using a FLIPR TETRA system (Molecular Devices, Sunnyvale, Calif., USA) in the 384-format. This is a high-throughput instrument for cell-based assays to monitor Ca^2+ signaling associated with GPCRs and ion channels. Cells were seeded at a density of 5×10^4 cells/well in BioCoat poly-D-lysine coated, black wall, clear bottom 384-well plates (BD Biosciences, Franklin lakes, NJ, USA) and allowed to attach overnight in an incubator at 37° C. The cells were then washed twice with HBSS-HEPES buffer (Hanks' balanced salt solution without bicarbonate and phenol red, 20 mM HEPES, pH 7.4) using an ELx405 Select CW Microplate Washer (BioTek, Winooski, Vt., USA). After 60 min of dye-loading in the dark using the Ca^2+-sensitive dye Fluo-4AM (Invitrogen, Carlsbad, Calif., USA), at a final concentration of 2×10^−6M, the plates were washed 4 times with HBSS-HEPES buffer to remove excess dye and leaving 50 μl of buffer in each well. The plates were then placed in the FLIPR TETRA instrument and allowed to equilibrate at 37° C. AGN-211377 was added in a 25 μl volume to each well to give final concentrations of 0.1 μM, 0.3 μM, 1 μM, 3 μM, 10 μM, and 30 μM; or 0.067 μM, 0.1 μM, 0.2 μM, 0.3 μM, 0.67 μM, and 1 μM for cells over-expressing TP receptors. After 4.5 minutes, a 7-point serial dilution of the standard agonist for the corresponding receptor, in a 25 μl volume was injected at the final concentrations from 10^−11M to 10^−5M in 10-fold serial dilution increments for cells expressing human recombinant DP1, EP1, EP2, EP3, EP4, FP, and IP receptors. The dose range for the standard agonist for human recombinant TP receptors was from 10^−12 M to 10^−6 M. HBSS-HEPES buffer was used as the negative control for the standard agonists. Cells were excited with LED (light emitting diode) excitation at 470-495 nm and emission was measured through an emission filter at 515-575 nm. Assay plates were read for 3.5 minutes using the FLIPR^TETRA. The peak increase in fluorescence intensity was recorded for each well. On each plate, negative controls, dose response of positive controls, and co-treatments of antagonist-agonist for each dose were in triplicates.
(§5) Standard agonists were as follows: DP=BW 245C, EP1-EP4=PGE2, FP=17-phenyl-PGF2α, IP=Cicaprost, and TP=U-46619. […]

[2] = target: T2, human prostanoid DP1 receptor (Homo sapiens, UniProt Q13258); test: FLIPR Ca2+ signaling antagonist assay, DP1 receptor stable cell line; conditions: HEK-293 EBNA stable cell line; standard agonist BW 245C; NA = inactive (no antagonism or Kb 10,000 nM); PAg, Ag not defined
T2 construct: expressed in transfected cells
T2 sequence (Q13258 1-359): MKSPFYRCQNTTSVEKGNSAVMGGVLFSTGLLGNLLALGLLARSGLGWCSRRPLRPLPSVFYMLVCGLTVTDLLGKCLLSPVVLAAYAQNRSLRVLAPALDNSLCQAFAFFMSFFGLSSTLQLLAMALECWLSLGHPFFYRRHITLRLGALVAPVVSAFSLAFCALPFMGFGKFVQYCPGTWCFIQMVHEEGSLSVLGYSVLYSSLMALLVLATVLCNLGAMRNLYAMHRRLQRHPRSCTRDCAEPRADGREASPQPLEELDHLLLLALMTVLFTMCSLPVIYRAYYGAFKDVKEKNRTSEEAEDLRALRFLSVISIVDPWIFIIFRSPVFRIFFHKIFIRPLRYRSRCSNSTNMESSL
Description: as §1, §2, §3, §4, §5

[3] = target: T3, human prostanoid EP1 receptor (Homo sapiens, UniProt P34995); test: FLIPR Ca2+ signaling antagonist assay, EP1 receptor stable cell line; conditions: HEK-293 EBNA stable cell line; standard agonist PGE2; NA = inactive (no antagonism or Kb 10,000 nM); PAg, Ag not defined
T3 construct: expressed in transfected cells
T3 sequence (P34995 1-402): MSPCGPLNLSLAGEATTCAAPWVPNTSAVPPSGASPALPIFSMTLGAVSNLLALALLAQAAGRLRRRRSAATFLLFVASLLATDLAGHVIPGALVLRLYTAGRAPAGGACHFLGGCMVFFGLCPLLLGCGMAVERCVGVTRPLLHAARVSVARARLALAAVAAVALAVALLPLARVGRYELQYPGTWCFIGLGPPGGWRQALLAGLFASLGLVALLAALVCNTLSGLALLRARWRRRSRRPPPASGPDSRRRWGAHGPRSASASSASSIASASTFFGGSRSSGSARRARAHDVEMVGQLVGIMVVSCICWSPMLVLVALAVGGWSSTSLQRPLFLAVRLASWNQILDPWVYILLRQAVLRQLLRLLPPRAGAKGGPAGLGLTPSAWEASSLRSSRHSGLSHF
Description: as §1, §2, §3, §4, §5

[4] = target: T4, human prostanoid EP4 receptor (Homo sapiens, UniProt P35408); test: FLIPR Ca2+ signaling antagonist assay, EP4 receptor stable cell line; conditions: HEK-293 EBNA stable cell line; standard agonist PGE2; NA = inactive (no antagonism or Kb 10,000 nM); PAg, Ag not defined
T4 construct: expressed in transfected cells
T4 sequence (P35408 whole entry): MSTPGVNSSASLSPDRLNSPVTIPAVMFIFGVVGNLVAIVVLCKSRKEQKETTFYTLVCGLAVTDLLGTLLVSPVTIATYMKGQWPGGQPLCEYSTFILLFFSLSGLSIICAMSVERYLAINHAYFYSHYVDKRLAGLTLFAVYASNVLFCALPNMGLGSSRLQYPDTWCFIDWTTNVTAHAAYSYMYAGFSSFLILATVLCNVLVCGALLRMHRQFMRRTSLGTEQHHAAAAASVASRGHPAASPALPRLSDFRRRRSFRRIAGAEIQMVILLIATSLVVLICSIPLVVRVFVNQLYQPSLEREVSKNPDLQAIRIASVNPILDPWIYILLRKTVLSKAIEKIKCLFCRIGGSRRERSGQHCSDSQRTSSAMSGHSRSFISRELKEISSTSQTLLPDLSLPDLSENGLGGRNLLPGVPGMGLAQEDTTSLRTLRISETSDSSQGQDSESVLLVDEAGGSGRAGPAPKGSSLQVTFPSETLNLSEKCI
Description: as §1, §2, §3, §4, §5

[5] = target: T5, human prostanoid IP receptor (Homo sapiens, UniProt P43119); test: FLIPR Ca2+ signaling antagonist assay, IP receptor stable cell line; conditions: HEK-293 EBNA stable cell line; standard agonist Cicaprost; NA = inactive (no antagonism or Kb 10,000 nM); PAg, Ag not defined
T5 construct: expressed in transfected cells
T5 sequence (P43119 whole entry): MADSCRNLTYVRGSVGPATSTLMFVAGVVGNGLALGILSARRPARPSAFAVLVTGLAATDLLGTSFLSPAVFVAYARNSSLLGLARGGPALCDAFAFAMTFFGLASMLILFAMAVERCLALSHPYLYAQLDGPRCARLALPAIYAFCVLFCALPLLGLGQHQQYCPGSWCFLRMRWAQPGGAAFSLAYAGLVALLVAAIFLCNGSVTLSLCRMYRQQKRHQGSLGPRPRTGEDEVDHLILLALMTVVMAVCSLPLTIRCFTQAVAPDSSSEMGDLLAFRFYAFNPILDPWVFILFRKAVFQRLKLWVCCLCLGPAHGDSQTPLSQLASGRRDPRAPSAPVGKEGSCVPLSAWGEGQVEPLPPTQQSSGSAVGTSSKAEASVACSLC
Description: as §1, §2, §3, §4, §5

[6] = target: T6, human prostanoid TP receptor (Homo sapiens, UniProt P21731); test: FLIPR Ca2+ signaling antagonist assay, TP receptor stable cell line; conditions: HEK-293 EBNA stable cell line; standard agonist U-46619; NA = inactive (no antagonism or Kb 10,000 nM); PAg, Ag not defined
T6 construct: expressed in transfected cells
T6 sequence (P21731 1-343): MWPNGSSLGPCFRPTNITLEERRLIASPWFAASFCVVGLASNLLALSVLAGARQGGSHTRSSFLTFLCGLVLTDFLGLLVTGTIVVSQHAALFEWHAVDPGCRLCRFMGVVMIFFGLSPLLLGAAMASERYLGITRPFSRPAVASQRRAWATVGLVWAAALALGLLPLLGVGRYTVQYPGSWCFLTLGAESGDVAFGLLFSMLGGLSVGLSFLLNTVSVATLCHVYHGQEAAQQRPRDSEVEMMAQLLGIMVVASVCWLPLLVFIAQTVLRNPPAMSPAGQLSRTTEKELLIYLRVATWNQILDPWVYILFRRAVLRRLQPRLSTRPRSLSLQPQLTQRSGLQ
Description: as §1, §2, §3, §4, §5

Structure (SMILES)	Kb [1] [nM]	Kb [2] [nM]	Kb [3] [nM]	Kb [4] [nM]	Kb [5] [nM]	Kb [6] [nM]	EP1 (FLIPR) Kb [3]	IP (FLIPR) Kb [5]	TP (FLIPR) Kb [6]
Cc1cc(CC(C)C(=O)O)nn1Cc1cc(Cl)ccc1OCC1CCCC1 (racemic) [Example 70, 3-{1-[5-Chloro-2-(2-cyclopentylmethoxy)-benzyl]-5-methyl-1H-pyrazol-3-yl}-2-methyl-propionic acid]	130	450	30	80	2000	120			
CCC(C)CCOc1ccc(Br)cc1Cn1nc(CCC(=O)O)cc1C (centres unmarked) [Example 7, 3-[1-(5-Bromo-2-(3-methyl-pentyloxy)-benzyl)-5-methyl-1H-pyrazol-3-yl]-propionic acid]	90	490	90	600	3500	2			
C/C=C(\C)COc1ccc(Br)cc1Cn1nc(CCC(=O)O)cc1C [Example 9, 3-[1-(5-Bromo-2-((E)-2-methyl-but-2-enyloxy)-benzyl)-5-methyl-1H-pyrazol-3-yl]-propionic acid]	400	750	11	600	4800	2			
CCC(C)COc1ccc(Br)cc1Cn1nc(CCC(=O)O)cc1C (centres unmarked) [Example 10, 3-[1-(5-Bromo-2-(2-methyl-butoxy)-benzyl)-5-methyl-1H-pyrazol-3-yl]-propionic acid]	70	360	12	100	4200	2			
CCCCCCCOc1ccc(Br)cc1Cn1nc(CCC(=O)O)cc1C [Example 15, 3-[1-(5-Bromo-2-heptyloxybenzyl)-5-methyl-1H-pyrazol-3-yl]-propionic acid]	500	400		8100	2000	500	PAg		
Cc1cc(CCC(=O)NS(=O)(=O)C(F)(F)F)nn1Cc1cc(Br)ccc1OCC1CCCC1 [Example 18, N-(3-{1-[5-Bromo-2-(2-cyclopentylmethoxy)-benzyl]-5-methyl-1H-pyrazol-3-yl}-propionyl)-C,C,C-trifluoro-methanesulfonamide]	250	400	14	300	3100	2			
CCC(C)CCOc1ccc(Cl)cc1Cn1nc(CCC(=O)O)cc1C (centres unmarked) [Example 22, 3-[1-(5-Chloro-2-(3-methylpentyloxy)benzyl)-5-methyl-1H-pyrazol-3-yl]-propionic acid]	90	340	140	600	5200	< 1			
Cc1cc(CCC(=O)O)nn1Cc1cc(Cl)ccc1OCC1CCCCC1 [Example 34, 3-[1-(5-Chloro-2-(cyclohexyl-methoxy)benzyl)-5-methyl-1H-pyrazol-3-yl]-propionic acid]	200	240		2500			Ag	Ag	Ag
Cc1cc(CCC(=O)O)nn1Cc1cc(Cl)ccc1OCC1(C(F)(F)F)CCC1 [Example 38, 3-[1-(5-Chloro-2-(1-trifluoromethylcyclobutylmethoxy)benzyl)-5-methyl-1H-pyrazol-3-yl]-propionic acid]	600	1900	140	3600	6000	8			
CCC(CC)Oc1ccc(Cl)cc1Cn1nc(CCC(=O)O)cc1C [Example 45, 3-[1-(5-Chloro-2-(1-ethylpropyloxy)benzyl)-5-methyl-1H-pyrazol-3-yl]-propionic acid]	660	500	240		6100	35			
CCC(CC)COc1ccc(C(F)(F)F)cc1Cn1nc(CCC(=O)O)cc1C [Example 46, 3-[1-[2-(2-Ethyl-butoxy)-5-trifluoromethyl-benzyl]-5-methyl-1H-pyrazol-3-yl]-propionic acid]	240	700	40	170	2100	3			
CCC(CC)COc1ccc(C(C)(C)C)cc1Cn1nc(CCC(=O)O)cc1C [Example 49, 3-[1-[2-(2-Ethyl-butoxy)-5-tert-butyl-benzyl]-5-methyl-1H-pyrazol-3-yl]-propionic acid]	1700	270	40	1800	2500	24			
COc1ccc(OCC2CCCC2)c(Cn2nc(CCC(=O)O)cc2C)c1 [Example 53, 3-[1-(2-Cyclopentylmethoxy-5-methoxy-benzyl)-5-methyl-1H-pyrazol-3-yl]-propionic acid]	1900	1500	600	1890	6900	700			
